Results as given in the kinase profiling compilation of Christmann-Franck et al. (2016).

Key:
Test in all cases: radiometric filter-binding kinase assay
[1] = test system: AKT1 (human), P31749 [S473D]
BRSK1 (human) = BRSK1 (human) (UniProt Q8TDC3)
CLK2 (human) = CLK2 (human) (UniProt P49760)
CSK (human) = CSK (human) (UniProt P41240)
DAPK1 (human) = DAPK1 (human) (UniProt P53355)
DYRK3 (human) = DYRK3 (human) (UniProt O43781)
EPHB4 (human) = EPHB4 (human) (UniProt P54760)
FGFR1 (human) = FGFR1 (human) (UniProt P11362)
GCK (human) = GCK (human) (UniProt Q12851)
IKBKB (human) = IKBKB (human) (UniProt O14920); conditions: compound 1.0 µM
IKBKE (human) = IKBKE (human) (UniProt Q14164)
MAP2K1 (human) = MAP2K1 (human) (UniProt Q02750)
MAP4K5 (human) = MAP4K5 (human) (UniProt Q9Y4K4)
Sequence of MAP4K5 (human) (Q9Y4K4 whole entry, looked up): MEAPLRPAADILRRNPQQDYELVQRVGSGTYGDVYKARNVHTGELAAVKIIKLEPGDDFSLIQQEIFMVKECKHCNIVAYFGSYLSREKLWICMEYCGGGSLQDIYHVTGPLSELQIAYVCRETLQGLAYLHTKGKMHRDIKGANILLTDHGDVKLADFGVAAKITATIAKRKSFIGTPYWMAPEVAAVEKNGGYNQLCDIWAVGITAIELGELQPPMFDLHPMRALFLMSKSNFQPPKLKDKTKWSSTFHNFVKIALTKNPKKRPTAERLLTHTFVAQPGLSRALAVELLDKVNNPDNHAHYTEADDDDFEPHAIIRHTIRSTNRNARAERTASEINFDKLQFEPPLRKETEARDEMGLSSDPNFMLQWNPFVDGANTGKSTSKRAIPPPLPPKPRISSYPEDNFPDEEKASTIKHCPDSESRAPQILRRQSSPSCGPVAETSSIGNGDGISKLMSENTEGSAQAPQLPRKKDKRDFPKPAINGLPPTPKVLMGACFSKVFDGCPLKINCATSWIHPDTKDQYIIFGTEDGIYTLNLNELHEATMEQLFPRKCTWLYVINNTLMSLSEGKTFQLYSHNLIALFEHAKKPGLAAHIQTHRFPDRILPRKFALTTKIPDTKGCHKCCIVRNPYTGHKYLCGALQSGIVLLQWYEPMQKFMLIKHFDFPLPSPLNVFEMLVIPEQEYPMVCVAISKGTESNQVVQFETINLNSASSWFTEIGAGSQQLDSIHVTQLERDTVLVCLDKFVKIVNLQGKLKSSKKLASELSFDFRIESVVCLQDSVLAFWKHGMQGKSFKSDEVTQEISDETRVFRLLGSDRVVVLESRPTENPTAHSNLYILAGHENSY

MAPK13 (human) = MAPK13 (human) (UniProt O15264)
MAPK3 (human) = MAPK3 (human) (UniProt P27361)
MAPKAPK2 (human) = MAPKAPK2 (human) (UniProt P49137)
Sequence of MAPKAPK2 (human) (P49137 whole entry, looked up): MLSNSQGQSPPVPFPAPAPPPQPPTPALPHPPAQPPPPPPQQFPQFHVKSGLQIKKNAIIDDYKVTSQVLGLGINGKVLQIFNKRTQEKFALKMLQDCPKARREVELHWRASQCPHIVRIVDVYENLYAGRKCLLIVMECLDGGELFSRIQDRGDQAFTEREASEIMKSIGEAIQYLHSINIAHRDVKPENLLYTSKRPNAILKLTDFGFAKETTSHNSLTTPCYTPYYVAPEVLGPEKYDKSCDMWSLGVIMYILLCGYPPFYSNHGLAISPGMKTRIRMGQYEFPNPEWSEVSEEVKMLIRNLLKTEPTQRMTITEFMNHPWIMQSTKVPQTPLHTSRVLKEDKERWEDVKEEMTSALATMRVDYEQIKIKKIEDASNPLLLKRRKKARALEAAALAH

MINK1 (human) = MINK1 (human) (UniProt Q8N4C8)
NEK2 (human) = NEK2 (human) (UniProt P51955)
PAK6 (human) = PAK6 (human) (UniProt Q9NQU5)
PAK7 (human) = PAK7 (human) (UniProt Q9P286); conditions: compound 1.0 µM
PDGFRA (human) = PDGFRA (human) (UniProt P16234)
PDPK1 (human) = PDPK1 (human) (UniProt O15530); conditions: compound 1.0 µM
PHKG1 (human) = PHKG1 (human) (UniProt Q16816)
PKN2 (human) = PKN2 (human) (UniProt Q16513)
PLK1 (human) = PLK1 (human) (UniProt P53350)
PRKACA (human) = PRKACA (human) (UniProt P17612)
PRKCG (human) = PRKCG (human) (UniProt P05129)
RPS6KA3 KD1 KD2 (human) = RPS6KA3 KD1 KD2 (human) (UniProt P51812)
SRC (human) = SRC (human) (UniProt P12931)
SYK (human) = SYK (human) (UniProt P43405)
TTBK1 (human) = TTBK1 (human) (UniProt Q5TCY1)
TTBK2 (human) = TTBK2 (human) (UniProt Q6IQ55)
Sequence of TTBK2 (human) (Q6IQ55 whole entry, looked up): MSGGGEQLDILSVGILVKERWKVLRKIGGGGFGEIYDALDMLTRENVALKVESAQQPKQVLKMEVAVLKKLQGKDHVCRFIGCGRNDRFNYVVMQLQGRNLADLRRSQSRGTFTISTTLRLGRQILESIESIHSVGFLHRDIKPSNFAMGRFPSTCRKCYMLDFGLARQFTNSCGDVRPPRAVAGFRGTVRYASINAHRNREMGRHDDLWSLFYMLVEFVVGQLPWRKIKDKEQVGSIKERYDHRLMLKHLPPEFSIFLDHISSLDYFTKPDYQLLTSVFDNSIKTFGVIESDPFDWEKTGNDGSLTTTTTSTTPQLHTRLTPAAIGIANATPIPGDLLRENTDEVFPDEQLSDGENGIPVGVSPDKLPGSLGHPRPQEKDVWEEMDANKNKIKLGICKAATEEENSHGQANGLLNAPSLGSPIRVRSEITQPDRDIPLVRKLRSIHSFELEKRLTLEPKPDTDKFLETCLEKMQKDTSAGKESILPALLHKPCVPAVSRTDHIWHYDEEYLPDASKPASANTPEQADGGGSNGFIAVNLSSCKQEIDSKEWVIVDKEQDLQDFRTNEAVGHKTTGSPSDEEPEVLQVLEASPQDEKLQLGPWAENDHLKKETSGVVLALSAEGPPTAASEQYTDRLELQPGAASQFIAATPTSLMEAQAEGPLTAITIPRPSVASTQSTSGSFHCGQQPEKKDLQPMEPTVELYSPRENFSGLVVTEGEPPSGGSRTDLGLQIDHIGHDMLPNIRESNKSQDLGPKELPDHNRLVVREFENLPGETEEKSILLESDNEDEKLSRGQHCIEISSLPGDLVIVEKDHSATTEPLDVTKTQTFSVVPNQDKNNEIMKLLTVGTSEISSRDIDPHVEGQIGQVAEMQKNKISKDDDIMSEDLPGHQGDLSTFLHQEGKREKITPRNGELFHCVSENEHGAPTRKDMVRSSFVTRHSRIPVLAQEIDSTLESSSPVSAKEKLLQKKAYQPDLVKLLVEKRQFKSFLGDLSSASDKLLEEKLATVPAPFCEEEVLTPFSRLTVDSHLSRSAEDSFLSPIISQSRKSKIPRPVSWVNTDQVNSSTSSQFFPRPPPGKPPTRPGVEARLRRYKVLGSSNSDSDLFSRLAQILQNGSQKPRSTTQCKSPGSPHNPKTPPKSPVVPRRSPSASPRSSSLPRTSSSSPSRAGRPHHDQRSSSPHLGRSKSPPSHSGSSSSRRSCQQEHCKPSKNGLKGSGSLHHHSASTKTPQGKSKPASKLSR

WNK1 (human) = WNK1 (human) (UniProt Q9H4A3)

Sequence of CSK (human) (P41240 whole entry, looked up): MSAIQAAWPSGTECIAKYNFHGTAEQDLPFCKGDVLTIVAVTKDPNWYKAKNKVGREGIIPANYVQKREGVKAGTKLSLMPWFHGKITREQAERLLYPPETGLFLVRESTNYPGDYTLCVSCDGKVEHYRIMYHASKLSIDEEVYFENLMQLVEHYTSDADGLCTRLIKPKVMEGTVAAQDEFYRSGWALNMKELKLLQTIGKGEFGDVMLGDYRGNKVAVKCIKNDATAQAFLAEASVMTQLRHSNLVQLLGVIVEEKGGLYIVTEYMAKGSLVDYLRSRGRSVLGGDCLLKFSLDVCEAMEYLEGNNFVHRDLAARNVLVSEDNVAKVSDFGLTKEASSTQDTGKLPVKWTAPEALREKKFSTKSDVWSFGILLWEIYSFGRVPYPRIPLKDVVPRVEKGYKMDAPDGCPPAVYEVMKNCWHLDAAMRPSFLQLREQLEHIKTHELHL
Sequence of DYRK3 (human) (O43781 whole entry, looked up): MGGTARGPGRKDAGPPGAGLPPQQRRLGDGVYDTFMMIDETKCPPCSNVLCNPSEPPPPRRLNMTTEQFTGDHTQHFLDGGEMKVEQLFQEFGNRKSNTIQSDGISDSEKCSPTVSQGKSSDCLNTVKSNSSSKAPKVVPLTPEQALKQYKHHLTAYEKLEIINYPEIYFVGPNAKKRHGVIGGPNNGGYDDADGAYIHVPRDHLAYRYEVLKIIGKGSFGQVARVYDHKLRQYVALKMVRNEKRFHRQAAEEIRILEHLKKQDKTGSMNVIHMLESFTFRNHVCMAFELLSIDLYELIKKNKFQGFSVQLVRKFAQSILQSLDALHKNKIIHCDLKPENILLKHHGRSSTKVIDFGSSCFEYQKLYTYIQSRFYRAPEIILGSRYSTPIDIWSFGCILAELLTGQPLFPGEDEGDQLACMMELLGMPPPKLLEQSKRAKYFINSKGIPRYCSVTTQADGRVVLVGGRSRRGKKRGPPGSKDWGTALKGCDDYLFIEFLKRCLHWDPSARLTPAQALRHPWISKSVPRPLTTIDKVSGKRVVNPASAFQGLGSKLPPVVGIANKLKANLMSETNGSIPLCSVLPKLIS
Sequence of BRSK1 (human) (Q8TDC3 whole entry, looked up): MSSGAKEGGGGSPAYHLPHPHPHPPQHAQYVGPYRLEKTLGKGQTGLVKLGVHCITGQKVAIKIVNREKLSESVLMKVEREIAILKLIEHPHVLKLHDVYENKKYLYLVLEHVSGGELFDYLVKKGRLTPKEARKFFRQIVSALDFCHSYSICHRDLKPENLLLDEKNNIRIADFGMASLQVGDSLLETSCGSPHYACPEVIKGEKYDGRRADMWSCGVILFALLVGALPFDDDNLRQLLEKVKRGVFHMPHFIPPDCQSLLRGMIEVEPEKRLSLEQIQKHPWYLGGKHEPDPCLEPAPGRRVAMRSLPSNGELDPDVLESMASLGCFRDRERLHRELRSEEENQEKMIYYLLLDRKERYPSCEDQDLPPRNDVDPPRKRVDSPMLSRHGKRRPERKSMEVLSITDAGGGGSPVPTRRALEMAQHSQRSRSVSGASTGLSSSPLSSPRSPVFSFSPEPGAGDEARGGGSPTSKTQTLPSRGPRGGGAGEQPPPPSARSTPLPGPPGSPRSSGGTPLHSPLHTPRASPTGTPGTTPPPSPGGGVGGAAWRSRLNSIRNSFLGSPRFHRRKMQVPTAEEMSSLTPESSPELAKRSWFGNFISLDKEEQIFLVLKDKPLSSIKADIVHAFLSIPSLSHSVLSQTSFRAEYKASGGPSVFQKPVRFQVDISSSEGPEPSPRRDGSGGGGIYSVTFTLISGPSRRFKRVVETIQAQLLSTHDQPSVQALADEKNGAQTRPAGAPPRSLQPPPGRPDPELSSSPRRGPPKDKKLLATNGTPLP
Sequence of CLK2 (human) (P49760 whole entry, looked up): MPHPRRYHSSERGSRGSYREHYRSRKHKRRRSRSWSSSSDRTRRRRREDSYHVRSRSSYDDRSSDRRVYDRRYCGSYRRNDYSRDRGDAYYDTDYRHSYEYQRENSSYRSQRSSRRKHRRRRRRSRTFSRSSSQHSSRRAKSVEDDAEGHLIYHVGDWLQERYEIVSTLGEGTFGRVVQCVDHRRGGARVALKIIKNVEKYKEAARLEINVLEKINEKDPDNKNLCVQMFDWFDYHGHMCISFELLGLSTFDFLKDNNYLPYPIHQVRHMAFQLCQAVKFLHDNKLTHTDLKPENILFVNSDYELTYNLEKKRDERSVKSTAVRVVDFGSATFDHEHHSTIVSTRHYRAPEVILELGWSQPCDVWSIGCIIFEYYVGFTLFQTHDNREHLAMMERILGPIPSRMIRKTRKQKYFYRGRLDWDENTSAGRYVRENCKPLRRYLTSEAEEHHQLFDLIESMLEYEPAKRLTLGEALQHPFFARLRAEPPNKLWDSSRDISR

CNc1nc(Nc2ccc(C(=O)N3CCOCC3)cc2OC)ncc1Cl
residual activity ([1]; compound 1.0 µM): 53%
residual activity ([1]; compound 10.0 µM): 85%
residual activity (BRSK1 (human); compound 1.0 µM): 59%
residual activity (BRSK1 (human); compound 10.0 µM): 78%
residual activity (CLK2 (human); compound 1.0 µM): 91%
residual activity (CLK2 (human); compound 10.0 µM): 76%
residual activity (CSK (human); compound 1.0 µM): 97%
residual activity (CSK (human); compound 10.0 µM): 103%
residual activity (DAPK1 (human); compound 1.0 µM): 61%
residual activity (DAPK1 (human); compound 10.0 µM): 23%
residual activity (DYRK3 (human); compound 1.0 µM): 84%
residual activity (DYRK3 (human); compound 10.0 µM): 76%
residual activity (EPHB4 (human); compound 1.0 µM): 94%
residual activity (EPHB4 (human); compound 10.0 µM): 113%
residual activity (FGFR1 (human); compound 1.0 µM): 89%
residual activity (FGFR1 (human); compound 10.0 µM): 86%
residual activity (GCK (human); compound 1.0 µM): 108%
residual activity (GCK (human); compound 10.0 µM): 79%
residual activity (IKBKB (human)): 82%
residual activity (IKBKE (human); compound 1.0 µM): 77%
residual activity (IKBKE (human); compound 10.0 µM): 75%
residual activity (MAP2K1 (human); compound 1.0 µM): 106%
residual activity (MAP2K1 (human); compound 10.0 µM): 93%
residual activity (MAP4K5 (human); compound 1.0 µM): 83%
residual activity (MAP4K5 (human); compound 10.0 µM): 82%
residual activity (MAPK13 (human); compound 1.0 µM): 87%
residual activity (MAPK13 (human); compound 10.0 µM): 86%
residual activity (MAPK3 (human); compound 1.0 µM): 95%
residual activity (MAPK3 (human); compound 10.0 µM): 104%
residual activity (MAPKAPK2 (human); compound 1.0 µM): 88%
residual activity (MAPKAPK2 (human); compound 10.0 µM): 102%
residual activity (MINK1 (human); compound 1.0 µM): 86%
residual activity (MINK1 (human); compound 10.0 µM): 96%
residual activity (NEK2 (human); compound 1.0 µM): 63%
residual activity (NEK2 (human); compound 10.0 µM): 90%
residual activity (PAK6 (human); compound 1.0 µM): 90%
residual activity (PAK6 (human); compound 10.0 µM): 98%
residual activity (PAK7 (human)): 88%
residual activity (PDGFRA (human); compound 1.0 µM): 79%
residual activity (PDGFRA (human); compound 10.0 µM): 56%
residual activity (PDPK1 (human)): 102%
residual activity (PHKG1 (human); compound 1.0 µM): 68%
residual activity (PHKG1 (human); compound 10.0 µM): 23%
residual activity (PKN2 (human); compound 1.0 µM): 102%
residual activity (PKN2 (human); compound 10.0 µM): 92%
residual activity (PLK1 (human); compound 1.0 µM): 97%
residual activity (PLK1 (human); compound 10.0 µM): 105%
residual activity (PRKACA (human); compound 1.0 µM): 85%
residual activity (PRKACA (human); compound 10.0 µM): 94%
residual activity (PRKCG (human); compound 1.0 µM): 93%
residual activity (PRKCG (human); compound 10.0 µM): 108%
residual activity (RPS6KA3 KD1 KD2 (human); compound 1.0 µM): 92%
residual activity (RPS6KA3 KD1 KD2 (human); compound 10.0 µM): 65%
residual activity (SRC (human); compound 1.0 µM): 84%
residual activity (SRC (human); compound 10.0 µM): 79%
residual activity (SYK (human); compound 1.0 µM): 68%
residual activity (SYK (human); compound 10.0 µM): 85%
residual activity (TTBK1 (human); compound 1.0 µM): 88%
residual activity (TTBK1 (human); compound 10.0 µM): 91%
residual activity (TTBK2 (human); compound 1.0 µM): 115%
residual activity (TTBK2 (human); compound 10.0 µM): 97%
residual activity (WNK1 (human); compound 1.0 µM): 62%
residual activity (WNK1 (human); compound 10.0 µM): 99%
